The record followed here is patent US20210179655A1, “Prodrugs of a JAK Inhibitor Compound for Treatment of Gastrointestinal Inflammatory Disease” (THERAVANCE BIOPHARMA R&D IP, LLC, priority 2015, published 2021).

Each structure is given as a SMILES string.

What is called half-life is the time needed for the level to fall by half in the phase considered. Read a high half-life as slow loss. As usually defined, the Ki is the dissociation constant of the complex between target and ligand, obtained from inhibition or displacement. The IC50 is the concentration that inhibits the measured activity by half.

One series deals with β-glucuronidase (Escherichia coli, UniProt P05804). As to the kind of experiment: Metabolic stability of compound 1 in β-glucuronidase from E. coli. The note with it: purified β-glucuronidase from E. coli, β-glucuronidase 100 Units/mL, 37° C. Type of series: in vitro ADME. The method, then:
The incubations were quenched at timepoints 0, 1, 2, 3, 5, 10, 15, 30, 60, and 90 min by addition of 100 μL of ACN. Samples were diluted with water+1% formic acid (4×) and analyzed using a Thermo Q-Exactive™ LC-MS system.

A further series has as its target TYK2 (Homo sapiens, UniProt P29597). As to the kind of experiment: Biochemical JAK kinase assay (LanthaScreen) Tyk2. Background: In TR-FRET formats the signal depends on donor and acceptor labels being close together.
The target of another series is JAK1 (Homo sapiens, UniProt P23458). As to the kind of experiment: Biochemical JAK kinase assay (LanthaScreen) JAK1.
In the next series the target is T1, JAK3 (Homo sapiens, UniProt P52333).
T1 sequence (P52333 1-1124): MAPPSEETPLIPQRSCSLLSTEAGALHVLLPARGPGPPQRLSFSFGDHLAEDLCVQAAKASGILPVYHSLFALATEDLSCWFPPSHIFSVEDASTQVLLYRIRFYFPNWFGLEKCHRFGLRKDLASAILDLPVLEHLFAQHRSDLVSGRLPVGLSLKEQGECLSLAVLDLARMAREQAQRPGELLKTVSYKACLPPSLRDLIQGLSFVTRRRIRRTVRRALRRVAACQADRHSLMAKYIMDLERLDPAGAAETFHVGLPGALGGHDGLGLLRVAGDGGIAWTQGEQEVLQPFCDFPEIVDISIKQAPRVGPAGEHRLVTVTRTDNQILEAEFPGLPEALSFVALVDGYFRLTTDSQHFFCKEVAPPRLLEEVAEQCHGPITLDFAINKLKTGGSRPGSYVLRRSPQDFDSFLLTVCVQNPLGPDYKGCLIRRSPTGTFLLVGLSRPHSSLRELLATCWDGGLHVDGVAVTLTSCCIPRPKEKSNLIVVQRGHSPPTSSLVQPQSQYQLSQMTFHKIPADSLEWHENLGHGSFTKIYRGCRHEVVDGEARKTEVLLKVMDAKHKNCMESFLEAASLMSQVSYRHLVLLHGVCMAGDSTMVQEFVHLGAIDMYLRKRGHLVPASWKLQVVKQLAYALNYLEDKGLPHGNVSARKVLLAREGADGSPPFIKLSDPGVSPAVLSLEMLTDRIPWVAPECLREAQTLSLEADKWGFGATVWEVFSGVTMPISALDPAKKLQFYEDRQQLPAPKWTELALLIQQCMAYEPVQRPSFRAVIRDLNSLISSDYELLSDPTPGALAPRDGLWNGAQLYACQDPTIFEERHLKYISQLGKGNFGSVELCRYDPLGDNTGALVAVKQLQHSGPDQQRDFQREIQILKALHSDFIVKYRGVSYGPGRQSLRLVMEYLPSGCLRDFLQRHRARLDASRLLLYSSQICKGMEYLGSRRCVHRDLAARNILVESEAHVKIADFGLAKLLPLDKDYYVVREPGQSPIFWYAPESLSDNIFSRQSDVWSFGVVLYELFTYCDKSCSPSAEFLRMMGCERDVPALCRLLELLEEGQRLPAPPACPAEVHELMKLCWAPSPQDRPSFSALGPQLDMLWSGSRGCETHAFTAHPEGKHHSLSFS
The experiment in a line: Biochemical JAK kinase assay (LanthaScreen) JAK3.

Series [1] deals with oxazolone-induced colitis. The experiment in a line: Mouse model of oxazolone-induced colitis. Type of series: in vivo. The method, then: Oxazolone-induced colitis is an experimental model that has a histological resemblance to human ulcerative colitis (Heller et al. […], 2002, 17, 629-638). Adult BALB/C mice (25-28 g, 9-12 weeks of age) from BioNeeds (India) were used in the assay. On day 1, animals were lightly anesthetized with isoflurane and the hairs between the shoulder were carefully removed before oxazolone (6 mg/mouse, 100 μL, 4:1 acetone: olive oil formulation) or vehicle solution was slowly applied for skin sensitization. Six days after skin sensitization, the mice were fasted overnight, anesthetized with ketamine and xylazine administered IP, and a 1 mL syringe filled with oxazolone solution, was inserted carefully ˜3.8 cm into the colon of the mouse. Animals were kept in a head down position and oxazolone (0.5 mg/50 μL/mouse in 50% ethanol) or 50% ethanol/saline was rectally instilled very slowly over a minute. The mice were held vertically (head down) for another minute to ensure that the entire oxazolone solution remained inside the colon. Drug treatment (PO, BID or TID) or vehicle was initiated the evening prior to the oxazolone intrarectal (IR) challenge. On both first (Day 1) and second (Day 2) days post-oxazolone IR challenge, the Disease Activity Index (DAI) was assessed by treatment-blinded experimenters for each mouse, according to the following subscores: stool consistency (0, normal; 2, loose; 4, diarrhea), gross bleeding and hemoccult test (0, absence; 2, blood tinged; 4, overt blood presence), and weight loss (0, none; 1, 1%-5%; 2, 6%-10%; 3, 11%-15%; 4, more than 15%); DAI=average of (stool consistency+blood presence+weight loss scores).
An area-under-the-curve (AUC) calculation based on total DAI scores was performed to track disease progression during the course of the experiment. AUC for each experimental group was calculated as: AUC=[(Day 1−Day 0)*Average (DAI Score of Day 0 & Day 1)]+[(Day 2−Day 1)*Average (DAI Score of Day 1 & Day 2)]. A Student's t-test compared the DAI AUC score of the vehicle/vehicle and vehicle/oxazolone groups to evaluate whether disease was induced following oxazolone treatment. This was followed by a one way ANOVA, with Dunnett's post hoc test, to compare the DAI AUC score of the vehicle/oxazolone and test compound/oxazolone groups. Statistical significance was defined by an α level set at p<0.05.

A short description of series [2]: Metabolic stability of comparison compounds in rat colon content. The series is classed as in vitro ADME. The note with it: 10 μM in rat colonic content, up to 120 min. As for the experimental part:
Colonic fecal content was harvested from a naïve male Sprague Dawley rat and was diluted 1:10 (1 gram to 9 mL phosphate buffer) and then homogenized using a handheld Omni Tissue Master. […] A 5 μL aliquot of diluted test compound was spiked into 300 μL of rat colonic content homogenate to begin the reaction at 37° C. Aliquots (50 μL) were removed from the incubation at the following time points (0, 15, 50, 85, and 120 min) and added into 200 μL of ACN with 3% formic acid and an internal standard molecule. […] All samples were centrifuged at 2000×g for 10 min after which 50 μL of supernatant was diluted into 150 μL of water and analyzed using a Thermo Q-Exactive LC-MS system. GraphPad Prism and Microsoft Excel were used to tabulate and plot the data.

Chain of JAK1 (P23458 whole entry): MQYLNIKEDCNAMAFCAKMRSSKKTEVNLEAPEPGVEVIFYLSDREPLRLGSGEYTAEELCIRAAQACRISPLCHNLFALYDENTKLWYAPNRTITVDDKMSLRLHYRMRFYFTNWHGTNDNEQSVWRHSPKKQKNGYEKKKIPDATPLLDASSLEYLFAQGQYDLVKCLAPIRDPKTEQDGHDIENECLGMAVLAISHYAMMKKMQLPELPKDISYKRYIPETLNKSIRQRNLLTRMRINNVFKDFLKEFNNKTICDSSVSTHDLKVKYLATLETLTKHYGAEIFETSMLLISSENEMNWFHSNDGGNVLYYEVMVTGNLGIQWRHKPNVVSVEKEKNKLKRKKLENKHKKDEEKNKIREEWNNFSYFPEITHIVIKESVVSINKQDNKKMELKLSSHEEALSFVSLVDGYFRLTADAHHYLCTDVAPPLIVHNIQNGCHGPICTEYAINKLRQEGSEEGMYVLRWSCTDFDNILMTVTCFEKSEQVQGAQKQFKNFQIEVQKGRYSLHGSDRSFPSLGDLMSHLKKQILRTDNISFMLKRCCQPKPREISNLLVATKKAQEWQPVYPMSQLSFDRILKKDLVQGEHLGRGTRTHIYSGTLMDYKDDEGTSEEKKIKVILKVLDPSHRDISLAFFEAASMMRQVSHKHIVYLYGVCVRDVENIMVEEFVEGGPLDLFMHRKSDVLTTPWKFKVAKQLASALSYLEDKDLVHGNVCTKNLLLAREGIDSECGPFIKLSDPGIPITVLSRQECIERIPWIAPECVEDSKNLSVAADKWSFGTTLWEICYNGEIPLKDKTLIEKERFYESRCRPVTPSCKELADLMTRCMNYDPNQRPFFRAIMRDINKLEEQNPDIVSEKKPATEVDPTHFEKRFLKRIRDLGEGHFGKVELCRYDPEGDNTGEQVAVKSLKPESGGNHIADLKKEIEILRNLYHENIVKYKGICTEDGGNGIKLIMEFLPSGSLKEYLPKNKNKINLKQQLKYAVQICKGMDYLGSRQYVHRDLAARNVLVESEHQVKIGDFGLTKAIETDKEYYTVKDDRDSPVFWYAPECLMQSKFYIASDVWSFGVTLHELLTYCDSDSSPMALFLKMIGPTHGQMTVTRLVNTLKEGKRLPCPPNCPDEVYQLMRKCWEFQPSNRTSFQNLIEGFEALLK
Chain of TYK2 (P29597 whole entry): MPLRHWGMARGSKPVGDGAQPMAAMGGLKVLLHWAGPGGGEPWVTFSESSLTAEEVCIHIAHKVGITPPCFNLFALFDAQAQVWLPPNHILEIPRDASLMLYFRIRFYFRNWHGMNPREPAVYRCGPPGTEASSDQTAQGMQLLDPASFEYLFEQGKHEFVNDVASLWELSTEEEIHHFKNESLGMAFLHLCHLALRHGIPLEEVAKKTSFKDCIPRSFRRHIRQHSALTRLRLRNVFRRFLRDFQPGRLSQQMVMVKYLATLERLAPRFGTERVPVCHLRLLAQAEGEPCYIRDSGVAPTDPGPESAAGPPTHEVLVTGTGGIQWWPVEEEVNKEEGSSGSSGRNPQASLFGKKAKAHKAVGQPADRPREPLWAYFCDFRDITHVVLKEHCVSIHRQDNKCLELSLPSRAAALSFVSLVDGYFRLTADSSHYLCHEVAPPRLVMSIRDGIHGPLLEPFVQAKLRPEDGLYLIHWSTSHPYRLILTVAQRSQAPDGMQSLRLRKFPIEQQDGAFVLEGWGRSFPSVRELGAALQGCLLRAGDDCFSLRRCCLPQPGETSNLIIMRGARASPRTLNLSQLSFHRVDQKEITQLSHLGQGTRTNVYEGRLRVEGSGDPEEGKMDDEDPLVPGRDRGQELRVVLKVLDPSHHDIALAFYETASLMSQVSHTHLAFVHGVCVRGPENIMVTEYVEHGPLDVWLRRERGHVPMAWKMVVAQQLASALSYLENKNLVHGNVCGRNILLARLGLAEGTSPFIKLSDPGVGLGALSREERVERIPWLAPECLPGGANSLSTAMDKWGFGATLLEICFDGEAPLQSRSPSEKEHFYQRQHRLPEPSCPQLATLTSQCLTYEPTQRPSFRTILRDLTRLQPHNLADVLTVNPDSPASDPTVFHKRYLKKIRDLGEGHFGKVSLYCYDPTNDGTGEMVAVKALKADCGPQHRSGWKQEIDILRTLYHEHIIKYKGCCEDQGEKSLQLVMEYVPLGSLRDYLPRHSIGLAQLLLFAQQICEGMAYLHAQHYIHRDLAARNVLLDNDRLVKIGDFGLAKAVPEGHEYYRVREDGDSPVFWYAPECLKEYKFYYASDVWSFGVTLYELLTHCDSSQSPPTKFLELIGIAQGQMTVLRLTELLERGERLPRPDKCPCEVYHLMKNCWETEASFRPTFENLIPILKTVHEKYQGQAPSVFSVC
Chain of β-glucuronidase (P05804 whole entry): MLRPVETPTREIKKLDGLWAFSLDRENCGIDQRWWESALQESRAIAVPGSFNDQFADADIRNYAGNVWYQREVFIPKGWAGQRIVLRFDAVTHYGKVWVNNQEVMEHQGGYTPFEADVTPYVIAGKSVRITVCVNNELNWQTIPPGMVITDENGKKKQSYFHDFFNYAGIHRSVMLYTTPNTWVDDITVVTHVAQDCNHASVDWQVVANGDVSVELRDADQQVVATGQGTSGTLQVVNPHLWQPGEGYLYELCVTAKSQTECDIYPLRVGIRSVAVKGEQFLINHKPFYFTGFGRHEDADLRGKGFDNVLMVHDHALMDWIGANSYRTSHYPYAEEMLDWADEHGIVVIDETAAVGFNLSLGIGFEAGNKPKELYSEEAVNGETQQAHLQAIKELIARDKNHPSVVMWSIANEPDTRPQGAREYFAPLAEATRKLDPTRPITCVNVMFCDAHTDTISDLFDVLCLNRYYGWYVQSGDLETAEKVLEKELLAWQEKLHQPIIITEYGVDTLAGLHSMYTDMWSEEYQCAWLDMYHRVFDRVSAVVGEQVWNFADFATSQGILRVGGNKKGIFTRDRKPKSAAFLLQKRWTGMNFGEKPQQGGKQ
Description for JAK1: (§1) A panel of four LanthaScreen JAK biochemical assays (JAK1, 2, 3 and Tyk2) were carried in a common kinase reaction buffer (50 mM HEPES, pH 7.5, 0.01% Brij-35, 10 mM MgCl2, and 1 mM EGTA). Recombinant GST-tagged JAK enzymes and a GFP-tagged STAT1 peptide substrate were obtained from Life Technologies.
(§2) Serially diluted compounds were pre-incubated with each of the four JAK enzymes and the substrate in white 384-well microplates (Corning) at ambient temperature for 1 h. ATP was subsequently added to initiate the kinase reactions in 10 μL total volume, with 1% DMSO. […] The JAK1 kinase activity was also tested at 1 mM ATP concentration. […] The plates were allowed to incubate at ambient temperature for 1 h before being read on the EnVision reader (Perkin Elmer).
(§3) For dose-response analysis, percent inhibition data were plotted vs. compound concentrations, and IC50 values were determined from a 4-parameter robust fit model with the Prism software (GraphPad Software). Results were expressed as pIC50 (negative logarithm of IC50) and subsequently converted to pKi (negative logarithm of dissociation constant, Ki) using the Cheng-Prusoff equation.
Description for JAK3: as §1, §2, §3
Description for TYK2: as §1, §2, §3

The molecule `C[C@@H]1CCN(C(=O)CC#N)C[C@@H]1N(C)c1ncnc2c1ccn2C(=O)N(C)CCN(C)C(=O)OCc1ccc(O[C@@H]2O[C@H](C(=O)O)[C@@H](O)[C@H](O)[C@H]2O)c([N+](=O)[O-])c1` [Compound 1, (2S,3S,4S,5R,6S)-6-(4-((((2-(4-(((3R,4R)-1-(2-cyanoacetyl)-4-methylpiperidin-3-yl)(methyl)amino)-N-methyl-7H-pyrrolo[2,3-d]pyrimidine-7-carboxamido)ethyl)(methyl)carbamoyl)oxy)methyl)-2-nitrophenoxy)-3,4,5-trihydroxytetrahydro-2H-pyran-2-carboxylic acid] came in with a half-life at 30 μM on β-glucuronidase of less than 5 min. Also, the Ki on TYK2 is greater than 1000 nM; at JAK1, greater than 501 nM; at JAK3 it was greater than 158 nM. On JAK1, this molecule yielded an IC50 greater than 10000 nM. For the same molecule, the “reversal of oxazolone-induced colitis (DAI AUC score)” value in series [1] (3, 10, and 60 mg/kg, PO, BID, similar magnitude to tofacitinib 30 and 60 mg/kg) is given as “significant reversal”. The “In vivo efficacy (oxazolone colitis), effective dose” value in series [1] (Effective dose that exhibits a comparable pharmacological effect in the oxazolone model compared to its vehicle) was 3 mg/kg. Also, the “generation of active metabolite from the pro-drug” value in series [2] is recorded as “generated measurable levels”.
